Measurements as given in the NIST ThermoML archive (doi:10.1016/j.fluid.2011.06.012).

What was measured:
[1] = Molar enthalpy of transition or fusion; details: DSC

CCCC[N+]1(C)CCCC1.N#C[S-] [1-butyl-1-methylpyrrolidinium thiocyanate]
[1]
Details	Molar enthalpy of transition or fusion [kcal/mol]
Crystal 1	0.491
Crystal 2	2.07

298.15 K, 101.33 kPa, Liquid
Details	mass density [kg/m3]	viscosity [mPa·s]
Cone and plate viscometry	–	109.46
Vibrating tube method	1024.77	–

Details	Normal melting temperature [°C]	Triple point temperature [K]
Crystal 1, DTA	22.2	–
Crystal 2, DTA	–	245.3
